Results: ChEMBL document CHEMBL4028904, “Discovery of a Novel Series of Tankyrase Inhibitors by a Hybridization Approach” (J Med Chem, 2017)

How the values were obtained:
[1] = target: T1, Poly [ADP-ribose] polymerase tankyrase-2 (Homo sapiens, UniProt Q9H2K2); assay: Inhibition of TNKS2 (unknown origin) expressed in HEK293 cells assessed as inhibition of Wnt3a-induced Wnt/beta-catenin signaling after 24 hrs by luciferase reporter gene assay; assay type: cell-based
T1 sequence (Q9H2K2 whole entry): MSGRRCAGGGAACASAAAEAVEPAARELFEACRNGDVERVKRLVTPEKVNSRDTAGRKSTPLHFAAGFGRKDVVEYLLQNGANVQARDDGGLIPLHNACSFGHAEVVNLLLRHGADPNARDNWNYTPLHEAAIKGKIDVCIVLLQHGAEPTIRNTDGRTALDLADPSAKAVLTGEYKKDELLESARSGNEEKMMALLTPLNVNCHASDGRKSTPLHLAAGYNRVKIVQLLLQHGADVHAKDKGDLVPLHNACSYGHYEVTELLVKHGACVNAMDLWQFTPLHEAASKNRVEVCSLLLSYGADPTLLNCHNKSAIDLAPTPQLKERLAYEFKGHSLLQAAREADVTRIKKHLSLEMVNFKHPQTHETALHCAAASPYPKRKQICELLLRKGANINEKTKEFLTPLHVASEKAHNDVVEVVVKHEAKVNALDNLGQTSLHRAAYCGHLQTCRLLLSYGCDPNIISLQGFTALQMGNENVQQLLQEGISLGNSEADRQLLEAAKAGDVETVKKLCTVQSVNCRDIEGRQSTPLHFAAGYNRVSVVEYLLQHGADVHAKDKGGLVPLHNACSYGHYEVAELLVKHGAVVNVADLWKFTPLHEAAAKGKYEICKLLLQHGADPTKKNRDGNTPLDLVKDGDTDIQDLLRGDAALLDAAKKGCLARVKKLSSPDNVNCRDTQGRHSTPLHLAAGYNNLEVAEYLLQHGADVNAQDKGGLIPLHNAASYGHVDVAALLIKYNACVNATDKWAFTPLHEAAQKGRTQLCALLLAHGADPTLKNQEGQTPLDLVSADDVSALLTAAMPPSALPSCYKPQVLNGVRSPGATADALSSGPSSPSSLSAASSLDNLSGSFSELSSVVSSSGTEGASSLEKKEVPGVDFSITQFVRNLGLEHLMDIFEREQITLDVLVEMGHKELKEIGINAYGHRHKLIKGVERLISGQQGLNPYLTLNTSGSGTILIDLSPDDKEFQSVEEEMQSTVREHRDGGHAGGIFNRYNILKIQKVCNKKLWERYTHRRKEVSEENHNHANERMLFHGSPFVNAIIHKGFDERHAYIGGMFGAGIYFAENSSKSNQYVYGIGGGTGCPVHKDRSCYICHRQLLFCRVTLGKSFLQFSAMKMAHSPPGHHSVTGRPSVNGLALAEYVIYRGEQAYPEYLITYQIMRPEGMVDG

[2] = target: T1, Poly [ADP-ribose] polymerase tankyrase-2; assay: Inhibition of human TNKS2 (873 to 1162 residues) assessed as reduction in NAD+ consumption by fluorescence assay
[3] = target: T1, Poly [ADP-ribose] polymerase tankyrase-2; assay: Inhibition of TNKS2 (unknown origin) transfected in human SW480 cells assessed as inhibition of Wnt3a-induced Wnt/beta-catenin signaling after 48 hrs by ST-luciferase reporter gene assay; assay type: cell-based

IC50 [1]: 120 nM
IC50 [2]: 330 nM
IC50 [3]: 1490 nM
Structure (SMILES): N#Cc1ccc2c(c1)[nH]c(=O)n2[C@H]1CC[C@H](c2nnc(-c3ccncn3)n2-c2ccccc2Cl)CC1
